Assay results from patent US20240343706A1, “PIPERIDINE-2,6-DIONE DERIVATIVES WHICH BIND TO CEREBLON, AND METHODS OF USE THEREOF” (Captor Therapeutics S.A., priority 2019, published 2024).
One block for each compound: values may come before it.

How the values were obtained:
[1] = target: CRBN-DDB1 protein complex (Homo sapiens, UniProt Q96SW2); assay: Fluorescence polarization (FP) assay, displacement of Cy5-labelled thalidomide; details: 25 nM CRBN-DDB1, 5 nM Cy5-labelled thalidomide, read-out: CRBN binding Ki
Description: CRBN-DDB1 protein complex was mixed with Cy5-labelled thalidomide and a compound to be tested (the “test compound”). […] The test solution was added to a 384-well assay plate.
The plate was spun-down (1 min, 1000 rpm, 22° C.) and then shaken using a VibroTurbulator for 10 min at room temperature (20-25° C.), with the frequency set to level 3. The assay plate with protein and the tracer was incubated for 60 min at room temperature (20-25° C.) prior to read-out with a plate reader.
The FP experiment was carried out with various concentrations of the test compounds in order to measure Ki values.

[2] = tested on: IKZF1; assay: IKZF1 degradation assay, H929 cell line (western blot densitometry); assay type: cell-based; details: H929 cells; for % of protein reduction based on densitometry values, IKZF 1 (24 H): summary Table 10, 20 μM (some compounds 10 and 20 μM)
Text: (§1) After primary and secondary Ab staining, the membranes were washed and signals developed. The densitometry analysis was implemented to obtain the numeric values used later in the protein level evaluation process.

[3] = tested on: IKZF3; assay: IKZF3 degradation assay, H929 cell line (western blot densitometry); assay type: cell-based; details: H929 cells
[4] = tested on: SALL4; assay: SALL4 degradation assay, Kelly cell line (western blot densitometry); assay type: cell-based; details: summary Table 10; Kelly cells, 24 H; 20 μM (some compounds 10 and 20 μM)
Text: as §1

[5] = tested on: CK1α; assay: CK1α degradation assay, Kelly cell line (western blot densitometry); assay type: cell-based; details: summary Table 10; Kelly cells, 24 H; 20 μM (some compounds 10 and 20 μM)
Text: as §1

Chain of CRBN-DDB1 protein complex (Q96SW2 whole entry): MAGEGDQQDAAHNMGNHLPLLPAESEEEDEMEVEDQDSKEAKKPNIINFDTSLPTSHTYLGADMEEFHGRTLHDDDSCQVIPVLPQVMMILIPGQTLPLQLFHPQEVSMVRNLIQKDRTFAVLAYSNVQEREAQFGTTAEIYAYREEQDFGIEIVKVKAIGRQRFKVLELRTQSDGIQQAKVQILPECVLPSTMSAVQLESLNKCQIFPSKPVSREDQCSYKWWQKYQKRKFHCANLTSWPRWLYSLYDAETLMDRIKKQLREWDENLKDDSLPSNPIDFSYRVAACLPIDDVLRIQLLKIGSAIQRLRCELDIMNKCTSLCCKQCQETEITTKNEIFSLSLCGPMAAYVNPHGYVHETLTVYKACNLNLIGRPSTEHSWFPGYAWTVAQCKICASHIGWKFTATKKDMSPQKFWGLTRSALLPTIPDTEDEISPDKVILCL
Chain of CRBN-DDB1 protein complex (Q16531 whole entry partner): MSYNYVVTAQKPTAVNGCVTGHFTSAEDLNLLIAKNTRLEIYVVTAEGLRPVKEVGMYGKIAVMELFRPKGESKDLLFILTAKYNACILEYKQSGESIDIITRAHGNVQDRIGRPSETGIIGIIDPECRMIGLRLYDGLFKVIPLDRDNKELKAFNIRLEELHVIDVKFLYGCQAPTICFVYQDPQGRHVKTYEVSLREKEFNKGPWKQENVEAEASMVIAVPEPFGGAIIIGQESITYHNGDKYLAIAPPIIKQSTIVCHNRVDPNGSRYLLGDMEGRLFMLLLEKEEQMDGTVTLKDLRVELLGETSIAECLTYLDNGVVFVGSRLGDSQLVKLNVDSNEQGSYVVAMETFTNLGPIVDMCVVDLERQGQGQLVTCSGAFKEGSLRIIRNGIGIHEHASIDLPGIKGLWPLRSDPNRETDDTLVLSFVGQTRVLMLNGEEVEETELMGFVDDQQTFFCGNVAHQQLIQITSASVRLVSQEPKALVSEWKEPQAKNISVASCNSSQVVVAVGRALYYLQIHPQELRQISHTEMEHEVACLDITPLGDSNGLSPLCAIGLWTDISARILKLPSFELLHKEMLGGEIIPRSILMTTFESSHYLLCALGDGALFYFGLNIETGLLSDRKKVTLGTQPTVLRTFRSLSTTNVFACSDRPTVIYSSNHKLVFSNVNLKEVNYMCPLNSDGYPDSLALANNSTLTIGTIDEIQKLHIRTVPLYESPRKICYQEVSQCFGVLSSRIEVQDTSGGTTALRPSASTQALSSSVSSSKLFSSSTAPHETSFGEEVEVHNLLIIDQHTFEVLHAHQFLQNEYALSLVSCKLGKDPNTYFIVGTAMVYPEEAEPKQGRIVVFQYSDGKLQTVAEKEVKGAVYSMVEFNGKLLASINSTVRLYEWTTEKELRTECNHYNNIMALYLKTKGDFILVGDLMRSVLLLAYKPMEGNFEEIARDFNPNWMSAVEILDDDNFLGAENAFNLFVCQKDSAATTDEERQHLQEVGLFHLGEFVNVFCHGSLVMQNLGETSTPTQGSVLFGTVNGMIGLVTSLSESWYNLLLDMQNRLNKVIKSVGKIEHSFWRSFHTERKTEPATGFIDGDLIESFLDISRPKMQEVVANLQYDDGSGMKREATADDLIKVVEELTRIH

Ki [1]: 1 to 10 µM
Structure (SMILES): O=C1CCC(NC(=O)c2nccc3[nH]cnc23)C(=O)N1 (stereo not drawn) [Compound 11, N-(2,6-dioxopiperidin-3-yl)-1H-imidazo[4,5-c]pyridine-4-carboxamide]

Ki [1]: 1 to 10 µM
Structure (SMILES): O=C1CCC(NC(=O)c2cccc3c(-c4cccs4)n[nH]c23)C(=O)N1 (stereo not drawn) [Compound 43, N-(2,6-dioxopiperidin-3-yl)-3-(thiophen-2-yl)-1H-indazole-7-carboxamide]

Ki [1]: 1 to 10 µM
Structure (SMILES): Cc1nc2c(C(=O)NC3CCC(=O)NC3=O)cccc2o1 (stereo not drawn) [Compound 51, N-(2,6-dioxopiperidin-3-yl)-2-methylbenzo[d]oxazole-4-carboxamide]

Ki [1]: 10 to 50 µM
Structure (SMILES): O=C1CCC(NC(=O)c2cccc3nnsc23)C(=O)N1 (stereo not drawn) [Compound 58]

Ki [1]: < 1 µM
Structure (SMILES): O=C1CCC(NC(=O)c2cccc3[nH]c(Cl)nc23)C(=O)N1 (stereo not drawn) [Compound 12, 2-chloro-N-(2,6-dioxopiperidin-3-yl)-1H-benzo[d]imidazole-4-carboxamide]

Ki [1]: < 1 µM
Structure (SMILES): N#Cc1nc2c(C(=O)NC3CCC(=O)NC3=O)cccc2[nH]1 (stereo not drawn) [Compound 22, 2-cyano-N-(2,6-dioxopiperidin-3-yl)-1H-benzo[d]imidazole-4-carboxamide]

Ki [1]: 1 to 10 µM
Structure (SMILES): Nc1ccc2[nH]c(C(F)(F)F)nc2c1C(=O)NC1CCC(=O)NC1=O (stereo not drawn) [Compound 26, 6-amino-N-(2,6-dioxopiperidin-3-yl)-2-(trifluoromethyl)-1H-1,3-benzodiazole-7-carboxamide]

Ki [1]: 1 to 10 µM
Structure (SMILES): O=C1CCC(NC(=O)c2cc(Br)cc3cn[nH]c23)C(=O)N1 (stereo not drawn) [Compound 47, 5-bromo-N-(2,6-dioxopiperidin-3-yl)-1H-indazole-7-carboxamide]

Ki [1]: 1 to 10 µM
Structure (SMILES): O=C1CCC(NC(=O)c2ccnc3scnc23)C(=O)N1 (stereo not drawn) [Compound 54, N-(2,6-dioxopiperidin-3-yl)thiazolo[5,4-b]pyridine-7-carboxamide]

Ki [1]: 1 to 10 µM
Structure (SMILES): Nc1ccc2cn[nH]c2c1C(=O)NC1CCC(=O)NC1=O (stereo not drawn) [Compound 48, 6-amino-N-(2,6-dioxopiperidin-3-yl)-1H-indazole-7-carboxamide]

Structure (SMILES): Cc1sc2c(c1C)C(c1ccc(Cl)cc1)=N[C@@H](CC(=O)Nc1ccc(OCCOCCOCCOCCNc3cccc4c3C(=O)N(C3CCC(=O)NC3=O)C4=O)cc1)c1nnc(C)n1-2 (stereo partly drawn) [ARV-825, reference compound]
% of IKZF1 α protein reduction based on densitometry values ([2]; 0.1 μM, 6 h): >25% (>25% for 26-74% of IKZF1 protein reduction) | % of IKZF1 α protein reduction based on densitometry values ([2]; 1 μM, 6 h): >25% (>25% for 26-74% of IKZF1 protein reduction) | % of IKZF1 α protein reduction based on densitometry values ([2]; 10 μM, 6 h): >25% (>25% for 26-74% of IKZF1 protein reduction) | IKZF1 degradation ([2]; 6 h, 0.1-10 μM): ~50% | % of IKZF3 protein reduction based on densitometry values, IKZF3 Band I ([3]; 0.1 μM, 6 h): >25% (>25% for 26-74% of IKZF3 protein reduction) | % of IKZF3 protein reduction based on densitometry values, IKZF3 Band II ([3]; 0.1 μM, 6 h): >25% (>25% for 26-74% of IKZF3 protein reduction) | % of IKZF3 protein reduction based on densitometry values, IKZF3 Band I ([3]; 1 μM, 6 h): >25% (>25% for 26-74% of IKZF3 protein reduction) | % of IKZF3 protein reduction based on densitometry values, IKZF3 Band II ([3]; 1 μM, 6 h): >25% (>25% for 26-74% of IKZF3 protein reduction) | % of IKZF3 protein reduction based on densitometry values, IKZF3 Band I ([3]; 10 μM, 6 h): >25% (>25% for 26-74% of IKZF3 protein reduction) | % of IKZF3 protein reduction based on densitometry values, IKZF3 Band II ([3]; 10 μM, 6 h): >25% (>25% for 26-74% of IKZF3 protein reduction) | IKZF3 degradation ([3]; 6 h, 0.1-10 μM): ~60%

Ki [1]: 1 to 10 µM
Structure (SMILES): O=C1CCC(NC(=O)c2cncc3[nH]cnc23)C(=O)N1 (stereo not drawn) [Compound 10, N-(2,6-dioxopiperidin-3-yl)-3H-imidazo[4,5-c]pyridine-7-carboxamide]

Ki [1]: 1 to 10 µM
Structure (SMILES): Cc1sc2c(c1C)C(c1ccc(Cl)cc1)=N[C@@H](CC(=O)Nc1ccc(OCCOCCOCCNC(=O)CCc3nc4c(C(=O)NC5CCC(=O)NC5=O)cccc4[nH]3)cc1)c1nnc(C)n1-2 (stereo partly drawn) [Compound 63, 2-(3-((2-(2-(2-(4-(2-((S)-4-(4-chlorophenyl)-2,3,9-trimethyl-6H-thieno[3,2-f][1,2,4]triazolo[4,3-a][1,4]diazepin-6-yl)acetamido)phenoxy)ethoxy)ethoxy)ethyl)amino)-3-oxopropyl)-N-(2,6-dioxopiperidin-3-yl)-1H-benzo[d]imidazole-7-carboxamide]

Ki [1]: 1 to 10 µM
Structure (SMILES): O=C1CCC(NC(=O)c2cccc3nc[nH]c23)C(=O)N1 (stereo not drawn) [Compound 2, N-(2,6-dioxopiperidin-3-yl)-1H-1,3-benzodiazole-7-carboxamide]

Ki [1]: 10 to 50 µM
Structure (SMILES): O=C1CCC(NC(=O)c2cccc3c(Br)n[nH]c23)C(=O)N1 (stereo not drawn) [Compound 42, 3-bromo-N-(2,6-dioxopiperidin-3-yl)-1H-indazole-7-carboxamide]

Ki [1]: 1 to 10 µM
Structure (SMILES): Cc1cc2cccc(C(=O)NC3CCC(=O)NC3=O)c2s1 (stereo not drawn) [Compound 41, N-(2,6-dioxopiperidin-3-yl)-2-methylbenzo[b]thiophene-7-carboxamide]

Structure (SMILES): Cn1cnc2cccc(C(=O)NC3CCC(=O)NC3=O)c21 (stereo not drawn) [Compound 5, N-(2,6-dioxopiperidin-3-yl)-1-methyl-1H-benzo[d]imidazole-7-carboxamide]
% of protein reduction based on densitometry values, SALL4 (24 H) [4]: ≤25% (≤25% for 0-25% of SALL4 protein reduction) | % of protein reduction based on densitometry values, CK1α (24 H) [5]: ≤25% (≤25% for 0-25% of CK1a protein reduction) | % of protein reduction based on densitometry values, IKZF 1 (24 H) [2]: ≤25% (≤25% for 0-25% of IKZF1 protein reduction)

Ki [1]: 1 to 10 µM
Structure (SMILES): Cc1nc2cccc(C(=O)NC3CCC(=O)NC3=O)c2s1 (stereo not drawn) [Compound 53, N-(2,6-dioxopiperidin-3-yl)-2-methylbenzo[d]thiazole-7-carboxamide]

Structure (SMILES): Cc1nc2c(C(=O)NC3CCCC(=O)NC3=O)cccc2[nH]1 (stereo not drawn) [Compound 20, N-(2,7-dioxoazepan-3-yl)-2-methyl-1H-benzo[d]imidazole-4-carboxamide]
% of protein reduction based on densitometry values, SALL4 (24 H) [4]: ≤25% (≤25% for 0-25% of SALL4 protein reduction) | % of protein reduction based on densitometry values, CK1α (24 H) [5]: ≤25% (≤25% for 0-25% of CK1a protein reduction) | % of protein reduction based on densitometry values, IKZF 1 (24 H) [2]: ≤25% (≤25% for 0-25% of IKZF1 protein reduction)

Ki [1]: 1 to 10 µM
Structure (SMILES): O=C1CCC(NC(=O)c2cccc3[nH]nnc23)C(=O)N1 (stereo not drawn) [Compound 55, N-(2,6-dioxopiperidin-3-yl)-1H-benzo[d][1,2,3]triazole-4-carboxamide]
% of IKZF3 protein reduction based on densitometry values, IKZF3 Band I ([3]; 10 μM, 24 h): ≤25% (≤25% for 0-25% of IKZF3 protein reduction) | % of IKZF3 protein reduction based on densitometry values, IKZF3 Band II ([3]; 10 μM, 24 h): ≤25% (≤25% for 0-25% of IKZF3 protein reduction) | % of IKZF3 protein reduction based on densitometry values, IKZF3 Band I ([3]; 20 μM, 24 h): ≤25% (≤25% for 0-25% of IKZF3 protein reduction) | % of IKZF3 protein reduction based on densitometry values, IKZF3 Band II ([3]; 20 μM, 24 h): ≤25% (≤25% for 0-25% of IKZF3 protein reduction)

Ki [1]: 1 to 10 µM
Structure (SMILES): Cc1nc2c(C(=O)NC3CCC(=O)NC3=O)c(OCC(=O)NCCCCCCCCNC(=O)C[C@@H]3N=C(c4ccc(Cl)cc4)c4c(sc(C)c4C)-n4c(C)nnc43)ccc2[nH]1 (stereo partly drawn) [Compound 67, 6-(2-((8-(2-((S)-4-(4-chlorophenyl)-2,3,9-trimethyl-6H-thieno[3,2-f][1,2,4]triazolo[4,3-a][1,4]diazepin-6-yl)acetamido)octyl)amino)-2-oxoethoxy)-N-(2,6-dioxopiperidin-3-yl)-2-methyl-1H-benzo[d]imidazole-7-carboxamide]

Ki [1]: 1 to 10 µM
Structure (SMILES): O=C1CCC(NC(=O)c2ccnc3[nH]cnc23)C(=O)N1 (stereo not drawn) [Compound 9, N-(2,6-dioxopiperidin-3-yl)-3H-imidazo[4,5-b]pyridine-7-carboxamide]

Ki [1]: 1 to 10 µM
Structure (SMILES): O=C1CCC(NC(=O)c2csc3[nH]cnc23)C(=O)N1 (stereo not drawn) [Compound 60, N-(2,6-dioxopiperidin-3-yl)-1H-thieno[2,3-d]imidazole-6-carboxamide]

Ki [1]: 1 to 10 µM
Structure (SMILES): Cc1nc2cccc(C(=O)NC3CCC(=O)NC3=O)c2o1 (stereo not drawn) [Compound 52, N-(2,6-dioxopiperidin-3-yl)-2-methylbenzo[d]oxazole-7-carboxamide]

Structure (SMILES): O=C1CCC(NC(=O)c2cccc3[nH]c(=O)[nH]c23)C(=O)N1 (stereo not drawn) [Compound 3, N-(2,6-dioxopiperidin-3-yl)-2-oxo-2,3-dihydro-1H-benzo[d]imidazole-4-carboxamide]
% of protein reduction based on densitometry values, SALL4 (24 H) [4]: ≤25% (≤25% for 0-25% of SALL4 protein reduction) | % of protein reduction based on densitometry values, CK1α (24 H) [5]: ≤25% (≤25% for 0-25% of CK1a protein reduction) | % of protein reduction based on densitometry values, IKZF 1 (24 H) [2]: ≤25% (≤25% for 0-25% of IKZF1 protein reduction)

Structure (SMILES): CCCCCC(=O)Nc1cc(C(=O)NC2CCC(=O)NC2=O)c2c(c1)ncn2C (stereo not drawn) [Compound 6, N-(2,6-dioxopiperidin-3-yl)-5-hexanamido-1-methyl-1H-benzo[d]imidazole-7-carboxamide]
% of protein reduction based on densitometry values, SALL4 (24 H) [4]: ≤25% (≤25% for 0-25% of SALL4 protein reduction) | % of protein reduction based on densitometry values, CK1α (24 H) [5]: ≤25% (≤25% for 0-25% of CK1a protein reduction) | % of protein reduction based on densitometry values, IKZF 1 (24 H) [2]: ≤25% (≤25% for 0-25% of IKZF1 protein reduction)
